Values of other authors in patent US20100317677A1, “Methods of Treating a Microbial Infection by Modulating RNase-L Expression and/or Activity” (priority 2007, published 2010).

Target: T1, RNase-L (Homo sapiens, UniProt Q05823)
T1 sequence (Q05823 1-741): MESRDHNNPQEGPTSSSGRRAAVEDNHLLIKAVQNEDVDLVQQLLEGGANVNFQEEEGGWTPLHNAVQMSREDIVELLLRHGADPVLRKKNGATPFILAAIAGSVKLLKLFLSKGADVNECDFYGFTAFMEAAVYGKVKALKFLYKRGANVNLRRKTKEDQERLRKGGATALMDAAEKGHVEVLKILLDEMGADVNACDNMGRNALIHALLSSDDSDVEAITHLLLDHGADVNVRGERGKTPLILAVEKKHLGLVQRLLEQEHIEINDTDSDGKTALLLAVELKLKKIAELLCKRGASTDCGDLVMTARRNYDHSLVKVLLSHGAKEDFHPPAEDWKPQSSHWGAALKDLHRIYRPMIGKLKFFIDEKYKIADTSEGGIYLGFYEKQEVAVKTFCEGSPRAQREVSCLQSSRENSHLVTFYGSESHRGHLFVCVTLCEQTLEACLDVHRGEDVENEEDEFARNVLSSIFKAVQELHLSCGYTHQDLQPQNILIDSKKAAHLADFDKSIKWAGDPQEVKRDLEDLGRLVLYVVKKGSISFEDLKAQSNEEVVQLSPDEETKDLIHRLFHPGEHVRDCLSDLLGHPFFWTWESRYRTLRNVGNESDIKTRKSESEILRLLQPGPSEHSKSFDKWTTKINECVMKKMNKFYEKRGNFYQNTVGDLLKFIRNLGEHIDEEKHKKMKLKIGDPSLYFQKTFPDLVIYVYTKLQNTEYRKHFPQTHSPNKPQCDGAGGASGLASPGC
Conditions: statement in words, cited from Thakur et al. 2007 and other literature

**Q.** For px5′A(2′p5′A)n [2-5A], which “Effect on the activity of RNase-L” value is on record?
**A.** The value was “increases the activity of RNase-L”.
